Source: patent US20060069132A1, “Azolecarboxamide herbicides” (priority 2004, published 2006)

Assays:
woolly cupgrass = experiment: Test C pre-/postemergence herbicide test; assay type: in vivo, Eriochloa villosa; conditions: preemergence; for Plant response rating (0 = no effect, 100 = complete control), Cupgrass, Woolly: 125 g ai/ha
Text: (§1) Seeds of plant species selected from bermudagrass (Cynodon dactylon (L.) Pers.), Surinam grass (Urochloa decumbens (Staph) R. D. Webster, previously named Brachiaria decumbens Stapf), cocklebur (Xanthium strumarium L.), corn (Zea mays L.), large crabgrass (Digitaria sanguinalis (L.) Scop.), woolly cupgrass (Eriochloa villosa (Thunb.) Kunth), giant foxtail (Setaria faberi Herrm.), goosegrass (Eleusine indica (L.) Gaertn.), johnsongrass (Sorghum halepense (L.) Pers.), kochia (Kochia scoparia (L.) Schrad.), lambsquarters (Chenopodium album L.), morningglory (Ipomoea coccinea L.), eastern black nightshade (Solanum ptycanthum Dunal), yellow nutsedge (Cyperus esculentus L.), pigweed (Amaranthus retroflexus L.), common ragweed (Ambrosia elatior L.), soybean (Glycine max (L.) Merr.), common (oilseed) sunflower (Helianthus annuus L.) and velvetleaf (Abutilon theophrasti Medik.) were planted and treated preemergence with test chemicals formulated in a non-phytotoxic solvent mixture which included a surfactant.
(§2) At the same time, plants selected from these crop and weed species and also winter barley (Hordeum vulgare L.), blackgrass (Alopecurus myosuroides Huds.), canarygrass (Phalaris minor Retz.), chickweed (Stellaria media (L.) Vill.), downy bromegrass (Bromus tectorum L.), green foxtail (Setaria viridis (L.) Beauv.), Italian ryegrass (Lolium multiflorum Lam.), wheat (Triticum aestivum L.), wild oat (Avenafatua L.) and windgrass (Apera spica-venti (L.) Beauv.) were treated with postemergence applications of some of the test chemicals formulated in the same manner. Plants ranged in height from 2 to 18 cm (1- to 4-leaf stage) for postemergence treatments. Plant species in the flooded paddy test consisted of rice (Oryza sativa), smallflower umbrella sedge (Cyperus difformis L.), ducksalad (Heteranthera limosa (Sw.) Willd.) and barnyardgrass (Echinochloa crus-galli (L.) Beauv.) grown to the 2-leaf stage for testing. Treated plants and controls were maintained in a greenhouse for 12 to 14 days, after which time all species were compared to controls and visually evaluated. Plant response ratings, summarized in Table C, are based on a scale of 0 to 100 where 0 is no effect and 100 is complete control. A dash (-) response means no test result.

giant foxtail = experiment: Test C pre-/postemergence herbicide test; assay type: in vivo, Setaria faberi; conditions: preemergence; for Plant response rating (0 = no effect, 100 = complete control), Foxtail, Giant: 125 g ai/ha
Text: as §1, §2

rice = experiment: Test C flooded paddy test; assay type: in vivo, Oryza sativa; conditions: for Plant response rating, Rice: 500 g ai/ha, visual rating after 12 to 14 days
In short: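 Postemergence sprays applied to plants 2 to 18 cm tall (1- to 4-leaf stage); paddy species grown to 2-leaf stage under flooding. After 12 to 14 days in greenhouse, visual rating versus untreated controls on 0–100 scale (0 no effect, 100 complete control).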

[1] = tested on: smallflower umbrella sedge; experiment: Test C flooded paddy test; assay type: in vivo, Cyperus difformis; conditions: for Plant response rating, Sedge, Umbrella: 500 g ai/ha, visual rating after 12 to 14 days
ducksalad = experiment: Test C flooded paddy test; assay type: in vivo, Heteranthera limosa; conditions: for Plant response rating, Ducksalad: 500 g ai/ha, visual rating after 12 to 14 days
lambsquarters = experiment: Test C pre-/postemergence herbicide test; assay type: in vivo, Chenopodium album; conditions: preemergence; for Plant response rating (0 = no effect, 100 = complete control), Lambsquarters: 125 g ai/ha
Text: as §1, §2

yellow nutsedge = experiment: Test C pre-/postemergence herbicide test; assay type: in vivo, Cyperus esculentus; conditions: 250 g ai/ha; scale 0-100; preemergence
Text: as §1, §2

corn = experiment: Test C pre-/postemergence herbicide test; assay type: in vivo, Zea mays; conditions: preemergence
Text: as §1, §2

morningglory = experiment: Test C pre-/postemergence herbicide test; assay type: in vivo, Ipomoea coccinea; parameters: key to Plant response rating, Morningglory: 0 = no effect, 100 = complete control; conditions: 62 g ai/ha; preemergence; scale 0 to 100
Text: as §1, §2

[2] = 125 g ai/ha, scale 0 to 100 (0 no effect, 100 complete control)
[3] = 250 g ai/ha, scale of 0 to 100, 0 is no effect, 100 is complete control
[4] = scale 0 to 100 (0 no effect, 100 complete control)
[5] = 500 g ai/ha, scale 0 to 100 (0 no effect, 100 complete control), visual, 12 to 14 days

SMILES | Plant response rating, Cupgrass, Woolly (woolly cupgrass; 62 g ai/ha, scale 0 to 100) | Plant response rating (0 = no effect, 100 = complete control), Cupgrass, Woolly (woolly cupgrass) | Plant response rating, Cupgrass, Woolly (woolly cupgrass; 250 g ai/ha, scale 0-100) | Plant response rating, Foxtail, Giant (giant foxtail; 62 g ai/ha, scale 0 to 100) | Plant response rating (0 = no effect, 100 = complete control), Foxtail, Giant (giant foxtail) | Plant response rating, Foxtail, Giant (giant foxtail; 250 g ai/ha, scale 0-100) | Rice plant response rating (rice; 62 g ai/ha, scale 0 to 100) | Rice plant response rating (rice; [2]) | Rice plant response rating (rice; [3]) | Plant response rating, Rice (rice; [4]) | Sedge, Umbrella plant response rating ([1]; 62 g ai/ha, scale 0 to 100) | Sedge, Umbrella plant response rating [1, 2] | Sedge, Umbrella plant response rating [1, 3] | Plant response rating, Sedge, Umbrella [1, 4] | Ducksalad plant response rating (ducksalad; 62 g ai/ha, scale 0 to 100) | Ducksalad plant response rating (ducksalad; [2]) | Ducksalad plant response rating (ducksalad; [3]) | Plant response rating, Ducksalad (ducksalad; [4]) | Plant response rating, Lambsquarters (lambsquarters; 62 g ai/ha, scale 0 to 100) | Plant response rating (0 = no effect, 100 = complete control), Lambsquarters (lambsquarters) | further results
CCc1nn(C(C)(C)C)nc1C(=O)Nc1cccc(C(=O)N(C)CC)c1 [Compound 384] | 55 | 75 | 95 | 95 | 100 | 100 | 60 | 65 | 80 | 80 | 80 | 80 | 80 | 80 | 80 | 80 | 80 | 85 | 100 | 100 | Plant response rating, Lambsquarters (lambsquarters; 250 g ai/ha, scale 0-100): 100
Cc1nn(C(C)(C)C)nc1C(=O)Nc1cccc(C(=O)N2CC=CC2)c1 [Compound 393] | 30 | 70 | 90 | 70 | 90 | 95 | 45 | 75 | 80 | 85 | 70 | 75 | 80 | 85 | 75 | 75 | 80 | 90 | 100 | 100 | Plant response rating, Nutsedge, Yellow (yellow nutsedge): 50; Plant response rating, Cupgrass, Woolly (woolly cupgrass; [5]): 100; Plant response rating, Foxtail, Giant (giant foxtail; [5]): 100; Plant response rating, Corn (corn; 62 g ai/ha, scale 0 to 100): 55; Plant response rating, Corn (corn; 250 g ai/ha, scale 0-100): 75; Plant response rating, Corn (corn; [5]): 100; Plant response rating, Morningglory (morningglory): 60; Plant response rating, Lambsquarters (lambsquarters; 250 g ai/ha, scale 0-100): 100; Plant response rating, Lambsquarters (lambsquarters; [5]): 100
